Assay results published in patent US20020193252A1, “Weeding method with sodium hydrogen carbonate” (The Hiraoka Environmental Science Laboratory, priority 2001, published 2002).
Read-outs that look alike come from different tables or passages of the source.

Tests used:
[1] = system: Weeds mainly consisting of Pueraria lobata, Cayratia japonica and Solidago serotina; conditions: 80° C., 140 g/L, 16 litter/m^2, 150 kgf/cm^2, 60 second/m^2; weeds about 60 cm; leaves turned black
[2] = system: Equisetum arvense and Taraxacum; conditions: 400 ml/m^2 sprayed on days 0,7,14,21, weeds cut on day 54
Description: (§1) A mixture of Equisetum arvense and Taraxacum having an average height of about 5 cm and Imperata cylindrica having an average height of about 5 cm in a test field having an area of 0.5 m^2 in Yokohama-city, Kanagawa-prefecture, Japan were subjected to the following field weeding test from the last third of July to the first third of November. […] Incidentally, the area ratio of weeds was assumed as 100% when the weeds proliferated to such an extent that they completely concealed the soil surface.
(§2) A saturated aqueous solution of sodium hydrogen carbonate was sprayed to each test field in an amount of 400 ml/m^2 by a watering pot, and then sprayed in the same way after 7 days, 14 days and 21 days, respectively. The area ratio and average height of weeds were measured by the naked eye after 26 days from the start of spraying. The weeds were totally cut after 54 days from the start of spraying. Thereafter, the weeds were left to grow without spraying an aqueous solution of sodium hydrogen carbonate. The area ratio and average height of weeds were measured by the naked eye after 64 days, 67 days, 73 days, 78 days, 86 days, 91 days and 95 days, respectively, from the start of spraying. For comparison, a mixture of Equisetum arvense and Taraxacum and Imperata cylindrica, to which an aqueous solution of sodium hydrogen carbonate was not sprayed, were subjected to the same measurement with respect to an area ratio and an average height.

[3] = system: Imperata cylindrica; conditions: 400 ml/m^2 sprayed on days 0,7,14,21, weeds cut on day 54
Description: as §1, §2

[4] = system: Weeds mainly consisting of Japanese nutmeg, Coix lacryma-jobi, Pueraria lobata and Solidago serotina; conditions: 70 g/L, 16 litter/m^2, 150 kgf/cm^2, 60 second/m^2; weeds about 60 cm; leaves turned yellow or black
[5] = system: Gramineae weeds except for grass (Zoysia japonica); conditions: spraying once a week
[6] = saturated aqueous solution
[7] = system: grass; conditions: 400 mL/m^2; for Killing Rate of Weeds: after 9 days from spraying
Description: (§3) A mixture of Equisetum arvense and Taraxacum having an average height of about 20 cm and grass having an average height of about 10 cm in a test field having an area of 0.5 m^2 in Yokohama-city, Kanagawa-prefecture, Japan were subjected to a field weeding test by spraying an aqueous solution of sodium hydrogen carbonate with a watering pot in the last third of October.
(§4) An aqueous solution of sodium hydrogen carbonate having a concentration of 2.5 weight %, 5.0 weight %, 8.0 weight % and 10.0 weight %, respectively, was uniformly sprayed to a mixture of Equisetum arvense and Taraxacum and grass in an amount of 400 mL/m^2 for each. […] The killing degree of the weeds was measured by the naked eye after 9 days from spraying to determine the killing rate of weeds in the same manner as in EXAMPLE 1.

[8] = system: Equisetum arvense and Taraxacum; conditions: 400 mL/m^2; for Killing Rate of Weeds: after 9 days from spraying
Description: as §3, §4

[9] = system: Equisetaceae weeds, Leguminosae weeds and wide leaves weeds
[10] = 2.5-10.0 weight % solution, last third of October

- pH [6]: about 8.2
Structure (SMILES): O=C([O-])O.[Na+] [sodium hydrogen carbonate]
- state of weeds the next day of treatment [1]: killed
- Area Ratio of Weeds ([2]; 0 days passed): 50%
- Average Height ([2]; 0 days passed): 5 cm
- Area Ratio of Weeds ([2]; 7 days passed): 5%
- Average Height ([2]; 7 days passed): 0 cm
- Area Ratio of Weeds ([2]; 14 days passed): 5%
- Average Height ([2]; 14 days passed): 0 cm
- Area Ratio of Weeds ([2]; 21 days passed): 5%
- Average Height ([2]; 21 days passed): 0 cm
- Area Ratio of Weeds ([2]; 26 days passed): 5%
- Average Height ([2]; 26 days passed): 0 cm
- Area Ratio of Weeds ([2]; 54 days passed): 0%
- Average Height ([2]; 54 days passed): 0 cm
- Area Ratio of Weeds ([2]; 64 days passed): 0%
- Average Height ([2]; 64 days passed): 0 cm
- Area Ratio of Weeds ([2]; 67 days passed): 0%
- Average Height ([2]; 67 days passed): 0 cm
- Area Ratio of Weeds ([2]; 73 days passed): 5%
- Average Height ([2]; 73 days passed): 5 cm
- Area Ratio of Weeds ([2]; 78 days passed): 10%
- Average Height ([2]; 78 days passed): 7 cm
- Area Ratio of Weeds ([2]; 86 days passed): 10%
- Average Height ([2]; 86 days passed): 10 cm
- Area Ratio of Weeds ([2]; 91 days passed): 20%
- Average Height ([2]; 91 days passed): 10 cm
- Area Ratio of Weeds ([2]; 95 days passed): 20%
- Average Height ([2]; 95 days passed): 10 cm
- Area Ratio of Weeds ([3]; 0 days passed): 5%
- Average Height ([3]; 0 days passed): 5 cm
- Area Ratio of Weeds ([3]; 7 days passed): 10%
- Average Height ([3]; 7 days passed): 15 cm
- Area Ratio of Weeds ([3]; 14 days passed): 30%
- Average Height ([3]; 14 days passed): 25 cm
- Area Ratio of Weeds ([3]; 21 days passed): 50%
- Average Height ([3]; 21 days passed): 45 cm
- Area Ratio of Weeds ([3]; 26 days passed): 50%
- Average Height ([3]; 26 days passed): 50 cm
- Area Ratio of Weeds ([3]; 54 days passed): 0%
- Average Height ([3]; 54 days passed): 0 cm
- Area Ratio of Weeds ([3]; 64 days passed): 0%
- Average Height ([3]; 64 days passed): 0 cm
- Area Ratio of Weeds ([3]; 67 days passed): 0%
- Average Height ([3]; 67 days passed): 0 cm
- Area Ratio of Weeds ([3]; 73 days passed): 0%
- Average Height ([3]; 73 days passed): 0 cm
- Area Ratio of Weeds ([3]; 78 days passed): 5%
- Average Height ([3]; 78 days passed): 5 cm
- Area Ratio of Weeds ([3]; 86 days passed): 5%
- Average Height ([3]; 86 days passed): 7 cm
- Area Ratio of Weeds ([3]; 91 days passed): 5%
- Average Height ([3]; 91 days passed): 7 cm
- Area Ratio of Weeds ([3]; 95 days passed): 5%
- Average Height ([3]; 95 days passed): 10 cm
- state of weeds the next day of treatment [4]: killed
- duration of spraying until weeds start to die [5]: 2-3 weeks
- time after spraying from which part of grass started to die with leaves turned yellow [7, 10]: 2 to 3 days
- Killing Rate of Weeds ([7]; concentration 5.0 weight %): 50%
- Killing Rate of Weeds ([7]; concentration 8.0 weight %): 70%
- Killing Rate of Weeds ([7]; concentration 10.0 weight %): 85%
- Killing Rate of Weeds ([7]; concentration 25 weight %): 40%
- time after spraying from which part of the weeds started to die with leaves turned black [8, 10]: 2 to 3 days
- Killing Rate of Weeds ([8]; concentration 5.0 weight %): 30%
- Killing Rate of Weeds ([8]; concentration 8.0 weight %): 65%
- Killing Rate of Weeds ([8]; concentration 10.0 weight %): 80%
- Killing Rate of Weeds ([8]; concentration 25 weight %): 10%
- time after spraying until weeds start to die ([9]; in autumn): 4 to 5 days
- time after spraying until weeds start to die ([9]; in summer): 1 to 2 days
